According to PubChem BioAssay (NCI):
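Each compound was tested at five concentrations against cells in 96-well plates for 48 hours. GI50 is the concentration that inhibits growth by half. Definition used: TGI = concentration required for complete inhibition of growth.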

Columns and labels:
Assay in all cases: growth of human tumour cells (NCI), 48 h
786-0 renal = test system: 786-0 renal
A498 renal = test system: A498 renal
A549 NSCLC = test system: A549 NSCLC
ACHN renal = test system: ACHN renal
BT-549 breast = test system: BT-549 breast
CAKI-1 renal = test system: CAKI-1 renal
CCRF-CEM leukemia = test system: CCRF-CEM leukemia
COLO 205 colon = test system: COLO 205 colon
DU-145 prostate = test system: DU-145 prostate
EKVX NSCLC = test system: EKVX NSCLC
HCC-2998 colon = test system: HCC-2998 colon
HCT-116 colon = test system: HCT-116 colon
HCT-15 colon = test system: HCT-15 colon
HL-60(TB) leukemia = test system: HL-60(TB) leukemia
HOP-62 NSCLC = test system: HOP-62 NSCLC
HOP-92 NSCLC = test system: HOP-92 NSCLC
HS 578T breast = test system: HS 578T breast
HT29 colon = test system: HT29 colon
IGROV1 ovarian = test system: IGROV1 ovarian
K-562 leukemia = test system: K-562 leukemia
KM12 colon = test system: KM12 colon
LOX IMVI melanoma = test system: LOX IMVI melanoma
M14 melanoma = test system: M14 melanoma
MALME-3M melanoma = test system: MALME-3M melanoma
MCF7 breast = test system: MCF7 breast
MDA-MB-231 breast = test system: MDA-MB-231 breast
MDA-MB-435 = test system: MDA-MB-435
MOLT-4 leukemia = test system: MOLT-4 leukemia
NCI-H226 lung = test system: NCI-H226 lung

C[C@]12CC[C@@H]3c4ccc(OC(=O)N(CCCl)CCCl)cc4CC[C@H]3[C@@H]1CC[C@@H]2OP(=O)(O)O
GI50 (786-0 renal): 43.9 µM | TGI (786-0 renal): > 100 µM | GI50 (A498 renal): 16 µM | TGI (A498 renal): 42.2 µM | GI50 (A549 NSCLC): 48.8 µM | TGI (A549 NSCLC): > 100 µM | GI50 (ACHN renal): 62.6 µM | TGI (ACHN renal): > 100 µM | GI50 (BT-549 breast): 27.1 µM | TGI (BT-549 breast): 79.1 µM | GI50 (CAKI-1 renal): > 77.1 µM | TGI (CAKI-1 renal): > 100 µM | GI50 (CCRF-CEM leukemia): 25.7 µM | TGI (CCRF-CEM leukemia): > 78.7 µM | GI50 (COLO 205 colon): 57.8 µM | TGI (COLO 205 colon): > 100 µM | GI50 (DU-145 prostate): 59.5 µM | TGI (DU-145 prostate): > 100 µM | GI50 (EKVX NSCLC): 33.2 µM | TGI (EKVX NSCLC): > 100 µM | GI50 (HCC-2998 colon): > 74.4 µM | TGI (HCC-2998 colon): > 100 µM | GI50 (HCT-116 colon): 41.9 µM | TGI (HCT-116 colon): > 100 µM | GI50 (HCT-15 colon): 43.5 µM | TGI (HCT-15 colon): > 100 µM | GI50 (HL-60(TB) leukemia): 30.1 µM | TGI (HL-60(TB) leukemia): 98.5 µM | GI50 (HOP-62 NSCLC): 63 µM | TGI (HOP-62 NSCLC): > 100 µM | GI50 (HOP-92 NSCLC): > 100 µM | TGI (HOP-92 NSCLC): > 100 µM | GI50 (HS 578T breast): 26.7 µM | TGI (HS 578T breast): > 76.9 µM | GI50 (HT29 colon): 33.7 µM | TGI (HT29 colon): > 100 µM | GI50 (IGROV1 ovarian): > 100 µM | TGI (IGROV1 ovarian): > 100 µM | GI50 (K-562 leukemia): > 73.5 µM | TGI (K-562 leukemia): > 100 µM | GI50 (KM12 colon): 40.3 µM | TGI (KM12 colon): > 100 µM | GI50 (LOX IMVI melanoma): 46.2 µM | TGI (LOX IMVI melanoma): > 100 µM | GI50 (M14 melanoma): 37.7 µM | TGI (M14 melanoma): > 100 µM | GI50 (MALME-3M melanoma): 83.5 µM | TGI (MALME-3M melanoma): > 100 µM | GI50 (MCF7 breast): > 100 µM | TGI (MCF7 breast): > 100 µM | GI50 (MDA-MB-231 breast): 26.8 µM | TGI (MDA-MB-231 breast): > 64.3 µM | GI50 (MDA-MB-435): 15.6 µM | TGI (MDA-MB-435): 50.4 µM | GI50 (MOLT-4 leukemia): > 59.3 µM | TGI (MOLT-4 leukemia): > 100 µM | GI50 (NCI-H226 lung): 43.7 µM
